Several values for one entry are separate records, joined by “and”; a condition that tells them apart may be missing. Identical values can stand only once. Results filed as inconclusive are left out.
System: BDF1 mice, s.c. Lewis lung carcinoma, T/C %
Test: NCI In Vivo Anticancer Drug Screen. Data for tumor model Lewis Lung Carcinoma (subcutaneous) in B6D2F1 (BDF1) mice
Procedure, shortened: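 First, mice carry a transplantable tumor. Next, groups receive either compound or vehicle. Finally, survival or tumor dimensions in the dosed animals are divided by the corresponding control figure.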

[1] = endpoint: mean tumor weight, dose: 12.5 mg/kg/injection, schedule: Q01DX011 (ip), vehicle: saline, higher = larger tumour
[2] = endpoint: mean tumor weight, dose: 25.0 mg/kg/injection, schedule: Q01DX011 (ip), vehicle: saline, higher = larger tumour
[3] = endpoint: mean tumor weight, dose: 50.0 mg/kg/injection, schedule: Q01DX011 (ip), vehicle: saline, higher = larger tumour
[4] = endpoint: mean tumor weight, dose: 100.0 mg/kg/injection, schedule: Q01DX011 (ip), vehicle: other, higher = larger tumour
[5] = endpoint: mean tumor weight, dose: 100.0 mg/kg/injection, schedule: Q01DX011 (ip), vehicle: saline, higher = larger tumour

O=NN(CCCl)C(=O)N[C@H]1CCCC[C@@H]1Cl
T/C (endpoint: median survival time, dose: 9.0 mg/kg/injection, schedule: Q01DX001 (ip), vehicle: Klucel (hydroxypropylcellulose) (HPC), higher = longer survival): 112 % of control
T/C (endpoint: median survival time, dose: 11.0 mg/kg/injection, schedule: Q01DX001 (ip), vehicle: gum acacia, higher = longer survival): 114 % of control
T/C (endpoint: median survival time, dose: 17.0 mg/kg/injection, schedule: Q01DX001 (ip), vehicle: gum acacia, higher = longer survival): 107 % of control
T/C (endpoint: median survival time, dose: 18.0 mg/kg/injection, schedule: Q01DX001 (ip), vehicle: Klucel (hydroxypropylcellulose) (HPC), higher = longer survival): 124 % of control
T/C (endpoint: median survival time, dose: 25.0 mg/kg/injection, schedule: Q01DX001 (ip), vehicle: gum acacia, higher = longer survival): 95 % of control
T/C (endpoint: median survival time, dose: 25.0 mg/kg/injection, schedule: Q04DX004 (ip), vehicle: gum acacia, higher = longer survival): 172 % of control
T/C (endpoint: median survival time, dose: 45.0 mg/kg/injection, schedule: Q07DX002 (ip), vehicle: gum acacia, higher = longer survival): 159 % of control
T/C (endpoint: median survival time, dose: 72.0 mg/kg/injection, schedule: Q01DX001 (ip), vehicle: Klucel (hydroxypropylcellulose) (HPC), higher = longer survival): 122 % of control
T/C (endpoint: median tumor weight (est.), dose: 18.0 mg/kg/injection, schedule: Q01DX001 (ip), vehicle: gum acacia, higher = larger tumour): 68 % of control
T/C (endpoint: median tumor weight (est.), dose: 37.0 mg/kg/injection, schedule: Q01DX001 (ip), vehicle: gum acacia, higher = larger tumour): 23 % of control
T/C (endpoint: median tumor weight (est.), dose: 55.0 mg/kg/injection, schedule: Q01DX001 (ip), vehicle: gum acacia, higher = larger tumour): 7 % of control

CC(C)NCC(=O)c1ccc(O)c(O)c1
T/C (endpoint: median survival time, dose: 5.0 mg/kg/injection, schedule: Q01DX009 (ip), vehicle: saline, higher = longer survival): 107 % of control
T/C (endpoint: median survival time, dose: 10.0 mg/kg/injection, schedule: Q01DX009 (ip), vehicle: saline, higher = longer survival): 114 % of control
T/C (endpoint: median survival time, dose: 20.0 mg/kg/injection, schedule: Q01DX009 (ip), vehicle: saline, higher = longer survival): 114 % of control
T/C (endpoint: median survival time, dose: 40.0 mg/kg/injection, schedule: Q01DX009 (ip), vehicle: saline, higher = longer survival): 111 % of control

CC(/C=N/N=C(N)N)=N/N=C(N)N
T/C [1]: 96 % of control
T/C [2]: 69 % of control
T/C [3]: 94 % of control

CCN(CC)Cc1cc(Nc2c3ccccc3nc3cc(Cl)ccc23)ccc1O
T/C (endpoint: mean tumor weight, dose: 40.0 mg/kg/injection, schedule: Q01DX011 (ip), vehicle: other, higher = larger tumour): 48 % of control

O=P(c1ccccc1)(c1ccccc1)P(=O)(c1ccccc1)c1ccccc1
T/C (endpoint: mean tumor weight, dose: 33.0 mg/kg/injection, schedule: Q01DX011 (ip), vehicle: other, higher = larger tumour): 117 % of control
T/C (endpoint: mean tumor weight, dose: 66.0 mg/kg/injection, schedule: Q01DX011 (ip), vehicle: other, higher = larger tumour): 79 % of control
T/C [4]: 61 % of control
T/C (endpoint: mean tumor weight, dose: 150.0 mg/kg/injection, schedule: Q01DX011 (ip), vehicle: other, higher = larger tumour): 94 % of control
T/C (endpoint: mean tumor weight, dose: 200.0 mg/kg/injection, schedule: Q01DX011 (ip), vehicle: methylcellulose (MC), higher = larger tumour): 87 % of control
T/C (endpoint: mean tumor weight, dose: 300.0 mg/kg/injection, schedule: Q01DX011 (ip), vehicle: methylcellulose (MC), higher = larger tumour): 38 % of control

Cc1ccc(Oc2ccc3cc[n+](C)cc3c2)cc1
T/C (endpoint: median survival time, dose: 6.25 mg/kg/injection, schedule: Q01DX009 (ip), vehicle: saline, higher = longer survival): 96 % of control
T/C (endpoint: median survival time, dose: 12.5 mg/kg/injection, schedule: Q01DX009 (ip), vehicle: saline, higher = longer survival): 101 % of control

Clc1ncnc2c1ncn2C1CCCO1 (stereo not given)
T/C (endpoint: mean tumor weight, dose: 25.0 mg/kg/injection, schedule: Q01DX011 (ip), vehicle: other, higher = larger tumour): 91 % of control
T/C (endpoint: mean tumor weight, dose: 50.0 mg/kg/injection, schedule: Q01DX011 (ip), vehicle: other, higher = larger tumour): 108 % of control
T/C [4]: 81 % of control
T/C (endpoint: mean tumor weight, dose: 200.0 mg/kg/injection, schedule: Q01DX011 (ip), vehicle: other, higher = larger tumour): 51 % of control and 62 % of control
T/C (endpoint: mean tumor weight, dose: 400.0 mg/kg/injection, schedule: Q01DX011 (ip), vehicle: other, higher = larger tumour): 57 % of control
T/C (endpoint: mean tumor weight, dose: 600.0 mg/kg/injection, schedule: Q01DX011 (ip), vehicle: other, higher = larger tumour): 42 % of control

Cn1cnc2c1c(=O)[nH]c(=O)n2C
T/C [3]: 74 % of control
T/C [5]: 72 % of control
T/C (endpoint: mean tumor weight, dose: 200.0 mg/kg/injection, schedule: Q01DX011 (ip), vehicle: saline, higher = larger tumour): 85 % of control
T/C (endpoint: mean tumor weight, dose: 400.0 mg/kg/injection, schedule: Q01DX011 (ip), vehicle: saline, higher = larger tumour): 84 % of control

COc1ccc(-c2c(CC(=O)O)c3cc(OC)ccc3n2Cc2ccc(Cl)cc2)cc1
T/C (endpoint: mean tumor weight, dose: 222.0 mg/kg/injection, schedule: Q01DX011 (ip), vehicle: other, higher = larger tumour): 164 % of control
T/C (endpoint: mean tumor weight, dose: 333.0 mg/kg/injection, schedule: Q01DX011 (ip), vehicle: other, higher = larger tumour): 151 % of control

CNC(C)C(O)c1ccccc1 (stereo not given)
T/C (endpoint: mean tumor weight, dose: 66.6 mg/kg/injection, schedule: Q01DX011 (ip), vehicle: saline, higher = larger tumour): 109 % of control

Cc1cc(N(CCCl)CCCl)ccc1N=Nc1ccccc1C(=O)O
T/C (endpoint: median survival time, dose: 2.0 mg/kg/injection, schedule: Q01DX009 (ip), vehicle: saline with Tween-80, higher = longer survival): 101 % of control
T/C (endpoint: median survival time, dose: 4.0 mg/kg/injection, schedule: Q01DX009 (ip), vehicle: saline with Tween-80, higher = longer survival): 105 % of control and 111 % of control
T/C (endpoint: median survival time, dose: 8.0 mg/kg/injection, schedule: Q01DX009 (ip), vehicle: saline with Tween-80, higher = longer survival): 96 % of control and 104 % of control
T/C (endpoint: median survival time, dose: 10.0 mg/kg/injection, schedule: Q01DX001 (ip), vehicle: saline with Tween-80, higher = longer survival): 107 % of control
T/C (endpoint: median survival time, dose: 20.0 mg/kg/injection, schedule: Q01DX001 (ip), vehicle: saline with Tween-80, higher = longer survival): 92 % of control
T/C (endpoint: median survival time, dose: 32.0 mg/kg/injection, schedule: Q04DX003 (ip), vehicle: saline with Tween-80, higher = longer survival): 116 % of control

CCCNc1ncnc2c1cnn2C
T/C (endpoint: mean tumor weight, dose: 3.12 mg/kg/injection, schedule: Q01DX011 (ip), vehicle: saline, higher = larger tumour): 95 % of control
T/C (endpoint: mean tumor weight, dose: 6.25 mg/kg/injection, schedule: Q01DX011 (ip), vehicle: saline, higher = larger tumour): 89 % of control
T/C [1]: 65 % of control
T/C [2]: 28 % of control

CCCCC[C@H](O)/C=C/[C@H]1[C@H](O)CC(=O)[C@@H]1C/C=C\CCCC(=O)O
T/C (endpoint: median survival time, dose: 50.0 mg/kg/injection, schedule: Q04DX002 (ip), vehicle: saline with Tween-80, higher = longer survival): 95 % of control

O=C(O)c1cc(=O)cc(C(=O)O)o1
T/C [2]: 66 % of control
T/C [3]: 76 % of control
T/C [5]: 77 % of control

CC(=O)[C@H]1CC[C@H]2[C@@H]3CCC4=CC(=O)CC[C@]4(C)[C@H]3CC[C@]12C
T/C (endpoint: median survival time, dose: 12.5 mg/kg/injection, schedule: Q02DX009 (ip), vehicle: Klucel (hydroxypropylcellulose) (HPC), higher = longer survival): 99 % of control
T/C (endpoint: median survival time, dose: 25.0 mg/kg/injection, schedule: Q02DX009 (ip), vehicle: Klucel (hydroxypropylcellulose) (HPC), higher = longer survival): 107 % of control
T/C (endpoint: median survival time, dose: 50.0 mg/kg/injection, schedule: Q02DX009 (ip), vehicle: Klucel (hydroxypropylcellulose) (HPC), higher = longer survival): 90 % of control
T/C (endpoint: median survival time, dose: 100.0 mg/kg/injection, schedule: Q02DX009 (ip), vehicle: Klucel (hydroxypropylcellulose) (HPC), higher = longer survival): 95 % of control
T/C (endpoint: median survival time, dose: 200.0 mg/kg/injection, schedule: Q02DX009 (ip), vehicle: Klucel (hydroxypropylcellulose) (HPC), higher = longer survival): 101 % of control
T/C (endpoint: median survival time, dose: 400.0 mg/kg/injection, schedule: Q02DX009 (ip), vehicle: Klucel (hydroxypropylcellulose) (HPC), higher = longer survival): 96 % of control

CC(=O)Nc1cc2c(cc1Br)-c1ccccc1C2O (stereo not given)
T/C (endpoint: mean tumor weight, dose: 24.0 mg/kg/injection, schedule: Q01DX011 (ip), vehicle: saline, higher = larger tumour): 47 % of control and 62 % of control and 69 % of control
T/C (endpoint: mean tumor weight, dose: 55.0 mg/kg/injection, schedule: Q01DX011 (ip), vehicle: saline, higher = larger tumour): 31 % of control and 52 % of control and 53 % of control
T/C (endpoint: mean tumor weight, dose: 444.0 mg/kg/injection, schedule: Q01DX011 (ip), vehicle: saline, higher = larger tumour): 26 % of control
T/C (endpoint: mean tumor weight, dose: 666.0 mg/kg/injection, schedule: Q01DX011 (ip), vehicle: saline, higher = larger tumour): 19 % of control

O=C(O)/C=C\C(=O)Nc1nccs1
T/C (endpoint: mean tumor weight, dose: 50.0 mg/kg/injection, schedule: Q01DX011 (ip), vehicle: carboxymethylcellulose (CMC), higher = larger tumour): 87 % of control
T/C (endpoint: mean tumor weight, dose: 100.0 mg/kg/injection, schedule: Q01DX011 (ip), vehicle: carboxymethylcellulose (CMC), higher = larger tumour): 85 % of control

C=C1C(=O)OC2CC1C(O)C/C(C)=C/CC/C(C)=C/C(O)CC2C (stereo not given)
T/C (endpoint: median survival time, dose: 1.56 mg/kg/injection, schedule: Q01DX009 (ip), vehicle: Klucel (hydroxypropylcellulose) (HPC), higher = longer survival): 90 % of control
T/C (endpoint: median survival time, dose: 3.12 mg/kg/injection, schedule: Q01DX009 (ip), vehicle: Klucel (hydroxypropylcellulose) (HPC), higher = longer survival): 108 % of control
T/C (endpoint: median survival time, dose: 6.25 mg/kg/injection, schedule: Q01DX009 (ip), vehicle: Klucel (hydroxypropylcellulose) (HPC), higher = longer survival): 93 % of control
T/C (endpoint: median survival time, dose: 12.5 mg/kg/injection, schedule: Q01DX009 (ip), vehicle: Klucel (hydroxypropylcellulose) (HPC), higher = longer survival): 92 % of control
T/C (endpoint: median survival time, dose: 25.0 mg/kg/injection, schedule: Q01DX009 (ip), vehicle: Klucel (hydroxypropylcellulose) (HPC), higher = longer survival): 99 % of control

O=C1C=CC(=O)c2c(Cl)ccc(O)c21
T/C (endpoint: median survival time, dose: 0.63 mg/kg/injection, schedule: Q01DX009 (ip), vehicle: Klucel (hydroxypropylcellulose) (HPC), higher = longer survival): 100 % of control
T/C (endpoint: median survival time, dose: 1.25 mg/kg/injection, schedule: Q01DX009 (ip), vehicle: Klucel (hydroxypropylcellulose) (HPC), higher = longer survival): 104 % of control
T/C (endpoint: median survival time, dose: 2.5 mg/kg/injection, schedule: Q01DX009 (ip), vehicle: Klucel (hydroxypropylcellulose) (HPC), higher = longer survival): 102 % of control
T/C (endpoint: median survival time, dose: 5.0 mg/kg/injection, schedule: Q01DX009 (ip), vehicle: Klucel (hydroxypropylcellulose) (HPC), higher = longer survival): 98 % of control

— PubChem BioAssay AID270 (DTP/NCI, 2004)
